# Laboratory results reported in patent US6737383B1, “Herbicidal oxadiazolidines” (priority 1999, dated 2004).
# Assays:
# morningglory = assay: Test B pre/postemergence morningglory; type: in vivo, Ipomoea hederacea
# Summary of the method: (§1)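 Herbicidal effect was estimated by eye on a ten-point control scale after plants spent twelve to sixteen days in a greenhouse following soil or foliar treatment. Foliar sprays targeted plants at one to four leaves; all doses were formulated in a non-phytotoxic solvent with surfactant.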
# sugar beet = assay: Test B pre/postemergence sugar beet; type: in vivo, Beta vulgaris
# Summary of the method: as §1
# wild oat = assay: Test B pre/postemergence wild oat; type: in vivo, Avena fatua
# Summary of the method: as §1
# wheat = assay: Test B pre/postemergence wheat; type: in vivo, Triticum aestivum
# Summary of the method: as §1
# purple nutsedge = assay: Test B pre/postemergence purple nutsedge; type: in vivo, Cyperus rotundus
# Summary of the method: as §1
# crabgrass = assay: Test B pre/postemergence crabgrass; type: in vivo, Digitaria sanguinalis
# Summary of the method: as §1
# giant foxtail = assay: Test B pre/postemergence giant foxtail; type: in vivo, Setaria faberii
# Summary of the method: as §1
# rape = assay: Test B pre/postemergence rape; type: in vivo, Brassica napus
# Summary of the method: as §1
# surinam grass = assay: Test B pre/postemergence surinam grass; type: in vivo, Brachiaria decumbens
# Summary of the method: as §1
# blackgrass = assay: Test B pre/postemergence blackgrass; type: in vivo, Alopecurus myosuroides
# Summary of the method: as §1
# rice = assay: Test B flood test rice; type: in vivo, Oryza sativa; settings: Rate 125 g/ha; Postemergence section (flood test species); scale 0 to 10, 0 no effect, 10 complete control
# Method: At the same time, these crop and weed species were also treated with postemergence applications of test chemicals formulated in the same manner. Plants ranged in height from 2 to 18 cm (1- to 4-leaf stage) for postemergence treatments. Plant species in the flood test consisted of rice (Oryza sativa), smallflower flatsedge (Cyperus difformis), duck salad (Heteranthera limosa) and bamyardgrass (Echinochloa crus-galli) grown to the 2-leaf stage for testing. Treated plants and controls were maintained in a greenhouse for twelve to sixteen days, after which all species were compared to controls and visually evaluated. Plant response ratings, summarized in Table B, are based on a scale of 0 to 10 where 0 is no effect and 10 is complete control. A dash (−) response means no test result.
# velvetleaf = assay: Test B pre/postemergence velvetleaf; type: in vivo, Abutilon theophrasti
# Summary of the method: as §1
# pigweed = assay: Test B pre/postemergence pigweed; type: in vivo, Amaranthus retroflexus
# Summary of the method: as §1
# corn = assay: Test B pre/postemergence corn; type: in vivo, Zea mays
# Summary of the method: as §1
# soybean = assay: Test B pre/postemergence soybean; type: in vivo, Glycine max
# Summary of the method: as §1
# duck salad = assay: Test B flood test duck salad; type: in vivo, Heteranthera limosa; settings: Rate 125 g/ha; Postemergence section (flood test species); scale 0 to 10, 0 no effect, 10 complete control
# Summary of the method: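 Each value is a visual injury score relative to controls, with 10 meaning complete control and 0 no effect. Evaluation took place twelve to sixteen days after the 2-leaf-stage plants were treated and kept in the greenhouse.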
# bedstraw = assay: Test B pre/postemergence bedstraw; type: in vivo, Galium aparine
# Summary of the method: as §1
# cocklebur = assay: Test B pre/postemergence cocklebur; type: in vivo, Xanthium strumarium
# Summary of the method: as §1
# [1] = Postemergence, Rate 62 g/ha, scale 0 to 10, 0 is no effect, 10 is complete control
# [2] = Postemergence, Rate 250 g/ha, scale 0 to 10, 0 no effect, 10 complete control
# [3] = Preemergence, Rate 62 g/ha, scale 0 to 10, 0 is no effect, 10 is complete control
# [4] = Preemergence, Rate 125 g/ha, scale 0 to 10 (0 no effect, 10 complete control)
# [5] = Preemergence, Rate 250 g/ha, scale of 0 to 10 where 0 is no effect and 10 is complete control
# [6] = Preemergence, Rate 500 g/ha, scale 0 (no effect) to 10 (complete control)
# [7] = Rate 125 g/ha, Postemergence, scale 0 to 10, 0 no effect, 10 complete control
# [8] = Rate 500 g/ha, Postemergence, scale 0 to 10, 0 no effect, 10 complete control
smiles,measurement,setting,value
COc1ccc(N(C(=O)n2oc(=O)n(-c3ccccc3C)c2=O)C(C)C)cc1 [Compound 49],Morningglory plant response rating,morningglory; [1],0
same,Morningglory plant response rating,morningglory; [2],0
same,"Plant response rating, Morningglory",morningglory; [3],0
same,"Plant response rating, Morningglory",morningglory; [4],0
same,"Plant response rating, Morningglory",morningglory; [5],0
same,Morningglory plant response rating,morningglory; [6],0
same,Morningglory plant response rating,morningglory; [7],0
same,Morningglory plant response rating,morningglory; [8],3
same,Sugarbeets plant response rating,sugar beet; [1],0
same,Sugarbeets plant response rating,sugar beet; [2],0
same,"Plant response rating, Sugarbeets",sugar beet; [3],0
same,"Plant response rating, Sugarbeets",sugar beet; [4],0
same,"Plant response rating, Sugarbeets",sugar beet; [5],0
same,Sugarbeets plant response rating,sugar beet; [6],0
same,Sugarbeets plant response rating,sugar beet; [7],0
same,Sugarbeets plant response rating,sugar beet; [8],0
same,Wild oats plant response rating,wild oat; [1],0
same,Wild oats plant response rating,wild oat; [2],0
same,"Plant response rating, Wild oats",wild oat; [4],0
same,"Plant response rating, Wild oats",wild oat; [5],0
same,Wild oats plant response rating,wild oat; [6],0
same,Wild oats plant response rating,wild oat; [7],0
same,Wild oats plant response rating,wild oat; [8],0
same,Wheat plant response rating,wheat; [1],0
same,Wheat plant response rating,wheat; [2],0
same,"Plant response rating, Wheat",wheat; [3],0
same,"Plant response rating, Wheat",wheat; [4],0
same,"Plant response rating, Wheat",wheat; [5],0
same,Wheat plant response rating,wheat; [6],0
same,Wheat plant response rating,wheat; [7],0
same,Wheat plant response rating,wheat; [8],0
same,Nutsedge plant response rating,purple nutsedge; [1],0
same,Nutsedge plant response rating,purple nutsedge; [2],0
same,"Plant response rating, Nutsedge",purple nutsedge; [3],0
same,"Plant response rating, Nutsedge",purple nutsedge; [4],0
same,"Plant response rating, Nutsedge",purple nutsedge; [5],0
same,Nutsedge plant response rating,purple nutsedge; [6],0
same,Nutsedge plant response rating,purple nutsedge; [7],0
same,Nutsedge plant response rating,purple nutsedge; [8],0
same,Crabgrass plant response rating,crabgrass; [1],0
same,Crabgrass plant response rating,crabgrass; [2],8
same,"Plant response rating, Crabgrass",crabgrass; [3],2
same,"Plant response rating, Crabgrass",crabgrass; [4],7
same,"Plant response rating, Crabgrass",crabgrass; [5],9
same,Crabgrass plant response rating,crabgrass; [6],9
same,Crabgrass plant response rating,crabgrass; [7],1
same,Crabgrass plant response rating,crabgrass; [8],9
same,Giant foxtail plant response rating,giant foxtail; [1],1
same,Giant foxtail plant response rating,giant foxtail; [2],9
same,"Plant response rating, Giant foxtail",giant foxtail; [3],8
same,"Plant response rating, Giant foxtail",giant foxtail; [4],8
same,"Plant response rating, Giant foxtail",giant foxtail; [5],10
same,Giant foxtail plant response rating,giant foxtail; [6],10
same,Giant foxtail plant response rating,giant foxtail; [7],4
same,Giant foxtail plant response rating,giant foxtail; [8],9
same,Rape plant response rating,rape; [1],0
same,Rape plant response rating,rape; [2],0
same,"Plant response rating, Rape",rape; [3],0
same,"Plant response rating, Rape",rape; [4],0
same,"Plant response rating, Rape",rape; [5],0
same,Rape plant response rating,rape; [6],0
same,Rape plant response rating,rape; [7],0
same,Rape plant response rating,rape; [8],0
same,B. signalgrass plant response rating,surinam grass; [1],0
same,B. signalgrass plant response rating,surinam grass; [2],0
same,"Plant response rating, B. signalgrass",surinam grass; [3],0
same,"Plant response rating, B. signalgrass",surinam grass; [4],0
same,"Plant response rating, B. signalgrass",surinam grass; [5],0
same,B. signalgrass plant response rating,surinam grass; [6],0
same,B. signalgrass plant response rating,surinam grass; [7],0
same,B. signalgrass plant response rating,"surinam grass; Rate 500 g/ha, Postemergence, scale of 0 to 10 where 0 is no effect and 10 is complete control",0
same,Blackgrass plant response rating,blackgrass; [1],0
same,Blackgrass plant response rating,blackgrass; [2],0
same,"Plant response rating, Blackgrass",blackgrass; [3],0
same,"Plant response rating, Blackgrass",blackgrass; [4],0
same,"Plant response rating, Blackgrass",blackgrass; [5],0
same,Blackgrass plant response rating,blackgrass; [6],0
same,Blackgrass plant response rating,blackgrass; [7],0
same,Blackgrass plant response rating,blackgrass; [8],0
same,Rice plant response rating,rice,0
same,Velvetleaf plant response rating,velvetleaf; [1],0
same,Velvetleaf plant response rating,velvetleaf; [2],0
same,"Plant response rating, Velvetleaf",velvetleaf; [3],0
same,"Plant response rating, Velvetleaf",velvetleaf; [4],0
same,"Plant response rating, Velvetleaf",velvetleaf; [5],0
same,Velvetleaf plant response rating,velvetleaf; [6],0
same,Velvetleaf plant response rating,velvetleaf; [7],0
same,Velvetleaf plant response rating,velvetleaf; [8],0
same,Redroot pigweed plant response rating,pigweed; [1],0
same,Redroot pigweed plant response rating,pigweed; [2],0
same,"Plant response rating, Redroot pigweed",pigweed; [3],0
same,"Plant response rating, Redroot pigweed",pigweed; [4],0
same,"Plant response rating, Redroot pigweed",pigweed; [5],0
same,Redroot pigweed plant response rating,pigweed; [6],0
same,Redroot pigweed plant response rating,pigweed; [7],0
same,Redroot pigweed plant response rating,pigweed; [8],0
same,Corn plant response rating,corn; [1],0
same,Corn plant response rating,corn; [2],0
same,"Plant response rating, Corn",corn; [3],0
same,"Plant response rating, Corn",corn; [4],0
same,"Plant response rating, Corn",corn; [5],0
same,Corn plant response rating,corn; [6],0
same,Corn plant response rating,corn; [7],0
same,Corn plant response rating,corn; [8],0
same,Soybean plant response rating,soybean; [1],1
same,Soybean plant response rating,soybean; [2],1
same,"Plant response rating, Soybean",soybean; [3],0
same,"Plant response rating, Soybean",soybean; [4],0
same,"Plant response rating, Soybean",soybean; [5],0
same,Soybean plant response rating,soybean; [6],0
same,Soybean plant response rating,soybean; [7],1
same,Soybean plant response rating,soybean; [8],1
same,Ducksalad plant response rating,duck salad,0
same,Bedstraw plant response rating,bedstraw; [1],0
same,Bedstraw plant response rating,bedstraw; [2],5
same,"Plant response rating, Bedstraw",bedstraw; [3],0
same,"Plant response rating, Bedstraw",bedstraw; [4],0
same,"Plant response rating, Bedstraw",bedstraw; [5],0
same,Bedstraw plant response rating,bedstraw; [6],0
same,Bedstraw plant response rating,bedstraw; [7],0
same,Cocklebur plant response rating,cocklebur; [1],0
same,Cocklebur plant response rating,cocklebur; [2],0
same,"Plant response rating, Cocklebur",cocklebur; [3],0
same,"Plant response rating, Cocklebur",cocklebur; [4],0
same,"Plant response rating, Cocklebur",cocklebur; [5],0
same,Cocklebur plant response rating,cocklebur; [6],0
same,Cocklebur plant response rating,cocklebur; [7],0
same,Cocklebur plant response rating,cocklebur; [8],0
